Tests used:
[1] = biological target: T1, hemichannels formed by panexine 1 (Panx1) (Homo sapiens, UniProt Q96RD7); assay: Functional status of panexine 1 hemichannels activated by mechanic stress; assay type: cell-based; settings: for effect on hemichannels formed by panexines (in words): concentration not given
T1 construct: expressed in transfected cells
Method: FIG. 7. Functional status of the hemichannels formed by panexine1 (Panx1) driven by mechanic stress.
(§1) The cells are incubated in an extracellular medium without divalent cations in order to increase the opening probability of hemichannels formed by connexins. In addition, as negative control parental cells not expressing hemichannels and cells transfected with panexine 1 and mechanically stimulated to induce the opening of the hemichannels formed by panexine 1.
Therefore, the compound is an inhibitor of hemichannels formed by highly specific conexins.

[2] = test system: hemichannels formed by connexins (26 or 43); assay: In vitro test of blocking the opening/activation of hemichannels; permeability tracer (ethidium) uptake in transfected HeLa cells; assay type: cell-based, Mouse; settings: for % Inhibition Hemichannel activity (Cx26 o 43): inhibition of the permeability tracer at a concentration of 5 μM, HeLa cells transfected with connexins 26 or 43
Method: The compounds are tested in experiments based on cells that are deficient in the expression of hemichannels and transfected with different connexins in order to evaluate and/or confirm their capacity of modulating the transport through the cellular membrane. The transport of permeability tracing molecules is evaluated and compared with the inhibitors of channels formed by connexins known, such as beta glycyrrhetinic acid (BGA) and carbenoxolone (CBX).
as §1
In vitro test of blocking the opening/activation of hemichannels formed by connexins (26 or 43).
The capacity of the different tracing molecules was tested in vitro to evaluate the capacity of the compounds of reducing the transport of these molecules using the HeLa cells transfected with connexins 26 or 43.
(§2) […] HeLa cells transfected with connexins 26 or 43 are used. In order to evaluate the activity of each compound over the connexin hemichannels, 10^3 HeLa cells transfected with connexins are shown by well in multi-well ([…]) plates 24 h before each experiment. Then, the cells are washed in a Locke solution that contains normal levels of divalent cations (Ca^2+ and Mg^2+) or a cation-free divalent Locke solution that contains 5 μm of ethidium bromide. Parallel to this, the cells are treated with different concentrations of each candidate compound and incubated for 5 min.
(§3) As indicated by the scheme of FIG. 2, the HeLa cells transfected with connexin 43 (Cx43) are shown in multi-well (96) plates and after 24 h the ethidium uptake is evaluated in the presence of cation free solution (DCFS) in the presence or absence of the compound in question. The ethidium uptake is evaluated as the fluorescence emitted measured with a fluorometer. If the value of fluorescence in the presence of the inhibitor is equal or close to that measured in cells bathed with a solution that contains divalent cations, the compound corresponds to an inhibitor of hemichannels formed by connexins. On the contrary, if the fluorescence value emitted by cells exposed to a possible inhibitor in DCFS is equal to that of cells bathed only with DCFS (without the compound in question), the compound is not an inhibitor of hemichannels formed by connexins. The same test is performed with different concentrations of each compound in order to determine the minimum effective concentration (EC50).

[3] = biological target: T2, gap junction channels formed by connexin 43 (Mus musculus, UniProt P23242); assay: Cellular coupling assessed with the transfer of ethidium in HeLa-Cx43 cells; assay type: cell-based; settings: for effect on gap junction channels (in words): connexin isoform and concentration not stated
T2 construct: expressed in transfected cells; host or cells: HeLa
T2 sequence (P23242 whole entry, canonical isoform): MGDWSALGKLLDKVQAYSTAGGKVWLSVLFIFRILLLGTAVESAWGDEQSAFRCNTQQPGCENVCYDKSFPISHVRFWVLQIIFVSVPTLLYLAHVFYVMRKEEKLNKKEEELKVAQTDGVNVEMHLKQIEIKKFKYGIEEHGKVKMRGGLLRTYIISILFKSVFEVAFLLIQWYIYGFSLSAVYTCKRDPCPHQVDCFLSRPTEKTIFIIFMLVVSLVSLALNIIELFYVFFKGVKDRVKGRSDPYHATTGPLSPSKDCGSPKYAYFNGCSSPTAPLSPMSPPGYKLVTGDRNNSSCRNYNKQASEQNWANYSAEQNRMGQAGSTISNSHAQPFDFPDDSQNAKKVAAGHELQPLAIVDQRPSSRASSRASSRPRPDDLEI
Method: FIG. 6. Cellular coupling assessed with the transfer of ethidium. A. Effect of the different inhibitors in HeLa-Cx43 cells (transfected with connexin 43). B. Cellular coupling index.
(§4) The molecules that inhibit the hemichannels formed by connexins are evaluated by their action on the hemichannels formed by panexine 1. The molecules inhibiting the hemichannels formed by connexins in the nanomolar range are studied as possible inhibitors of intercellular binding channels using the coupling technique to dyes and through electrophysiology using double fixing of voltage.

[4] = biological target: T3, hemichannels formed by connexin 43 (Mus musculus, UniProt P23242); assay: Unit currents of hemichannels in HeLa cells bathed in saline solution without Ca2+; assay type: cell-based; settings: 10 nM
T3 construct: expressed in transfected cells; host or cells: HeLa
T3 sequence (P23242 whole entry): as the sequence (P23242 whole entry, canonical isoform) above
Text: FIG. 4. Unit streams of the hemichannels formed by connexin 43 in HeLa cells bathed in saline solution without calcium ion (or Ca^2+) and in the presence of EGTA.
Should the molecules not inhibit the intercellular channels formed by connexins in the millimolar range and not affect the hemichannels formed by panexine 1, its inhibiting effect of currents of hemichannels formed by connexins using the voltage fixing methodology in the modality of full cell.
The unit currents of the hemichannels formed by connexin 43 are very frequent in the HeLa cells bathed with a saline solution without the calcium ion (or Ca^2+) (see FIG. 4, the two upper tracings).

[5] = biological target: T3, hemichannels formed by connexin 43; assay: Ethidium uptake in HeLa Cx43-EGFP cells induced by divalent cation free solution (DCFS); assay type: cell-based; settings: for ethidium uptake speed or rate by minute (dye uptake) induced by DCFS: 10 nM
Method: FIG. 3. Ethidium uptake in HeLa Cx43-EGFP. Effect of DCFS. A: Cells in culture. B: Ethidium uptake chart in HeLa Cx43-EGFP. C: extracelular DCSF induces the inlet of ethidium in Cx43; the effect of DCSF is shown, which was blocked by the inhibiting molecule (MX) (10 nM), (P<0.05, n=4).
as §2
as §3, with “The same test is performed with different concentrations of each compound in order to determine the minimum effective concentration (EC50).” left out
In FIG. 3, the upper left panel (A) corresponds to a phase microphotograph, where the HeLa cells can be noted that express connexin 43 conjugated with green fluorescent protein (EGFP) present in the microscopic field. […] Clearly, the inhibiting molecule inhibits the activity of hemichannels evaluated as dye uptake.

[6] = biological target: T4, gap junction channels formed by connexin 26 (Mus musculus, UniProt Q00977); assay: Incidence of cellular coupling evaluated with microinjections of Lucifer yellow; assay type: cell-based; settings: 1 nM; Lucifer yellow microinjection
T4 construct: expressed in transfected cells; host or cells: HeLa
Method: FIG. 5. Incidence percentage of coupling according to the time.
as §4
FIG. 5 depicts that the cells transfected with connexin 26 are very well coupled to gap junction channels. The incidence of the cellular coupling evaluated with microinjections of Lucifer yellow is close to 100% (black boxes).

[7] = in vitro hemichannel blocking, connexins 26 or 43

T1 sequence (Q96RD7 whole entry, species assumed): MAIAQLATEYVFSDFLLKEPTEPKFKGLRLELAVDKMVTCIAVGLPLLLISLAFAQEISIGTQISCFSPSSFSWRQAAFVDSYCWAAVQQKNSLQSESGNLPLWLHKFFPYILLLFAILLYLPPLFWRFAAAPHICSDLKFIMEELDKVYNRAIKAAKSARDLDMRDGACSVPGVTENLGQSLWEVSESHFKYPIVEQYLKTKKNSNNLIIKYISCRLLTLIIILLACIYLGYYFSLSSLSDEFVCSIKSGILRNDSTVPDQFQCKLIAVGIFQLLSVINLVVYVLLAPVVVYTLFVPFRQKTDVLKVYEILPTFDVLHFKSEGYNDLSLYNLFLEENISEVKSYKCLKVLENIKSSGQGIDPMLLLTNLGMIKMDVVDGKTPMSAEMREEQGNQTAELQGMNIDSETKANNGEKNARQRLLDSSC

Compound: C[C@]12C[C@@H](F)C(=O)C[C@@H]1CC[C@@H]1[C@@H]2CC[C@]2(C)[C@@H](OC(=O)c3ccccc3)CC[C@@H]12 [Example 4 (D), (2R,5S,8R,9S,10S,13S,14S,17S)-2-fluoro-10,13-dimethyl-3-oxohexadecahydro-1H-ciclopenta[a]fenantren-17-il benzoate]
- effect on hemichannels formed by panexines (in words) [1]: do not affect
- inhibition of hemichannels formed by connexins (in words) [2]: potent inhibitors
- IC50 [2, 7]: 20 nM
- efficacy [2, 7]: 100%
- % Inhibition Hemichannel activity (Cx26 o 43) [2]: 100%
- effect on gap junction channels (in words) [3]: do not affect

Compound: O=C(O[C@@H](C(=O)c1ccc(Cl)cc1)c1ccccc1)c1ccc2ccccc2n1 [Example 1 (A), (R)-2-(4-chlorofenil)-2-oxo-1-fenilethylquinoline-2-carboxylate]
- effect on hemichannels formed by panexines (in words) [1]: do not affect
- inhibition of hemichannels formed by connexins (in words) [2]: potent inhibitors
- % Inhibition Hemichannel activity (Cx26 o 43) [2]: 0%
- effect on gap junction channels (in words) [3]: do not affect

Compound: O=C(O)C(Oc1ccc(-c2ccccc2)cc1)Oc1ccc(-c2ccccc2)cc1 [Example 3 (C), Acetic 2,2-bis([1,1′-bifenil]-4-iloxi) acid]
- % Inhibition Hemichannel activity (Cx26 o 43) [2]: 0%

Compound: O=C(O[C@@H](C(=O)c1ccc(Cl)cc1)c1ccccc1)c1ccc2ccccc2n1 [compound 4, (R)-2-(4-chlorofenil)-2-oxo-1-fenilethlyquinoline-2-caroxilate]
- activity (unit currents) of the hemichannels formed by connexin 43 [4]: drastically inhibited
- ethidium uptake speed or rate by minute (dye uptake) induced by DCFS [5]: completely inhibited
- ethidium uptake speed or rate by minute (dye uptake) induced by DCFS ([5]; listed as MX): blocked
- reversal of the inhibition with the washing of DCFS ([5]; after 10 nM): partially reversed
- functional status of Panx1 hemichannels activated by mechanic stress ([1]; 100 nM): not inhibited
- coupling incidence, gap junction channels formed by connexin 26 [6]: does not significantly reduce
- cellular coupling mediated with gap junction channels formed by connexin 43 ([3]; 1 nM, ethidium transfer, HeLa-Cx43): does not inhibit

Compound: Cc1cc(N2CCOCC2)nc2ccc(Cc3ccc4nc(N5CCOCC5)cc(C)c4c3)cc12 [Example 7 (G), bis(4-methyl-2-morfolinquinoline-6-yl)methane]
- % Inhibition Hemichannel activity (Cx26 o 43) [2]: 0%

Compound: C#C[C@]1(O)CC[C@H]2[C@@H]3CC=C4C[C@@H](OC(=O)CCC5CCCCC5)CC[C@]4(C)[C@H]3CC[C@@]21C [Example 6 (F), (3S,8R,9S,10R,13S,14S,17R)-17-ethynil-17-hydroxi-10,13-dimethyl-2,3,4,7,8,9,10,11,12,13,14,15,16,17-tetradecahydro-1H-ciclopenta[a]fenantren-3-yl 3-ciclohexilpropanoate]
- % Inhibition Hemichannel activity (Cx26 o 43) [2]: 0%

Compound: CC1(C)[C@@H](OC(=O)CCC(=O)O)CC[C@]2(C)[C@H]3C(=O)C=C4[C@@H]5C[C@@](C)(C(=O)O)CC[C@]5(C)CC[C@@]4(C)[C@]3(C)CC[C@@H]12 [carbenoxolone, reference compound]
- functional status of Panx1 hemichannels activated by mechanic stress ([1]; 5 μm): totally blocked

Compound: CC(=O)O[C@H]1CC[C@@]2(C)[C@@H](CC[C@@H]3[C@@H]2CC[C@]2(C)[C@@H](OC(=O)C4CCCCC4)CC[C@@H]32)C1 [Example 5 (E), (3S,5S,8R,9S,10S,13S,14S,17S)-3-acetoxi-10,13-dimethylhexadecahydro-1H-ciclopenta[a]fenantren-17-il ciclohexanocarboxilate]
- efficacy [2, 7]: 100%
- % Inhibition Hemichannel activity (Cx26 o 43) [2]: 100%

Compound: Clc1ccc(N2CCN(CCCN3CCN(c4ccc(Cl)cc4)CC3)CC2)cc1 [Example 2 (B), 1,3-bis(4-(4-chlorofenil)piperazin-1-il)propane]
- % Inhibition Hemichannel activity (Cx26 o 43) [2]: 20%
